# Reference: patent US10844077B2, “Thiazolyl-containing compounds for treating proliferative diseases” (Dana-Farber Cancer Institute, Inc., priority 2014, dated 2020)
# Several values for one entry are separate records, joined by “and”; a condition that tells them apart may be missing. Equal values may be shown once.
# Experiments:
# Experiment in all cases: KINATIV assay
# Assay type in all cases: cell-based
# Details in all cases: 1 μM, 90 minutes, BCWM.1 cells
# [1] = biological target: PIK3C2B (Homo sapiens (Human), UniProt O00750)
# Summary of the method: (§1)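 Lysed cells serve as the kinase source; labeling uses an ATP-biotin probe added directly to lysate. ACTIVX then identifies and measures the captured kinases, with compound samples in duplicate against duplicate or quadruplicate controls.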
# [2] = biological target: STK33 (Homo sapiens (Human), UniProt Q9BYT3)
# Summary of the method: as §1
# [3] = biological target: PIK3CB (Homo sapiens (Human), UniProt P42338)
# Summary of the method: as §1
# [4] = biological target: BTK (Homo sapiens (Human), UniProt Q06187)
# Summary of the method: as §1
# [5] = biological target: ULK3 (Homo sapiens (Human), UniProt Q6PHR2)
# Summary of the method: as §1
# [6] = biological target: MAP3K6 (Homo sapiens (Human), UniProt O95382)
# Summary of the method: as §1
# [7] = biological target: MARK2 (Homo sapiens (Human), UniProt Q7KZI7)
# Summary of the method: as §1
# [8] = biological target: MAP2K1 (Homo sapiens (Human), UniProt Q02750)
# Summary of the method: as §1
# [9] = tested on: MARK3, MARK4
# Summary of the method: as §1
# [10] = biological target: CaMK2d (Homo sapiens (Human), UniProt Q13557)
# Summary of the method: as §1
# [11] = tested on: ZC1/HGK, ZC2/TNIK, ZC3/MINK
# Summary of the method: as §1
# [12] = biological target: NLK (Homo sapiens (Human), UniProt Q9UBE8)
# Summary of the method: as §1
# [13] = biological target: MELK (Homo sapiens (Human), UniProt Q14680)
# Summary of the method: as §1
# [14] = biological target: AKT1 (Homo sapiens (Human), UniProt P31749)
# Summary of the method: as §1
# [15] = biological target: VRK2 (Homo sapiens (Human), UniProt Q86Y07)
# Summary of the method: as §1
# [16] = tested on: MAP3K15, MAP3K5, MAP3K6
# Summary of the method: as §1
# [17] = biological target: FES (Homo sapiens (Human), UniProt P07332)
# Summary of the method: as §1
# [18] = biological target: CLK3 (Homo sapiens (Human), UniProt P49761)
# Summary of the method: as §1
# [19] = biological target: CK1a (Homo sapiens (Human), UniProt P48729)
# Summary of the method: as §1
# [20] = biological target: GSK3A (Homo sapiens (Human), UniProt P49840)
# Summary of the method: as §1
# [21] = tested on: MSK1, MSK2 domain1
# Summary of the method: as §1
# [22] = biological target: Erk5 (Homo sapiens (Human), UniProt Q13164)
# Summary of the method: as §1
# [23] = biological target: OSR1 (Homo sapiens (Human), UniProt O95747)
# Summary of the method: as §1
# [24] = biological target: ACK (Homo sapiens (Human), UniProt Q07912)
# Summary of the method: as §1
# [25] = biological target: TLK2 (Homo sapiens (Human), UniProt Q86UE8)
# Summary of the method: as §1
# [26] = biological target: IKKe (Homo sapiens (Human), UniProt Q14164)
# Summary of the method: as §1
# [27] = biological target: NEK8 (Homo sapiens (Human), UniProt Q86SG6)
# Summary of the method: as §1
# [28] = biological target: LRRK2 (Homo sapiens (Human), UniProt Q5S007)
# Summary of the method: as §1
# [29] = tested on: IKKe, TBK1
# Summary of the method: as §1
# [30] = biological target: Erk2 (Homo sapiens (Human), UniProt P28482)
# Summary of the method: as §1
# [31] = biological target: STLK6 (Homo sapiens (Human), UniProt Q9C0K7)
# Summary of the method: as §1
# [32] = tested on: p38d, p38g
# Summary of the method: as §1
# [33] = biological target: IRAK1 (Homo sapiens (Human), UniProt P51617)
# Summary of the method: as §1
# [34] = biological target: ATR (Homo sapiens (Human), UniProt Q13535)
# Summary of the method: as §1
# [35] = biological target: RSKL1 (Homo sapiens (Human), UniProt Q96S38)
# Summary of the method: as §1
# [36] = biological target: MAST3 (Homo sapiens (Human), UniProt O60307)
# Summary of the method: as §1
# [37] = tested on: MARK2, MARK3
# Summary of the method: as §1
# [38] = biological target: MAP3K3 (Homo sapiens (Human), UniProt Q99759)
# Summary of the method: as §1
# [39] = biological target: PIK3CG (Homo sapiens (Human), UniProt P48736)
# Summary of the method: as §1
# [40] = biological target: p70S6K (Homo sapiens (Human), UniProt P23443)
# Summary of the method: as §1
# [41] = biological target: ILK (Homo sapiens (Human), UniProt Q13418)
# Summary of the method: as §1
# Sequence of MAP3K6 (O95382 whole entry): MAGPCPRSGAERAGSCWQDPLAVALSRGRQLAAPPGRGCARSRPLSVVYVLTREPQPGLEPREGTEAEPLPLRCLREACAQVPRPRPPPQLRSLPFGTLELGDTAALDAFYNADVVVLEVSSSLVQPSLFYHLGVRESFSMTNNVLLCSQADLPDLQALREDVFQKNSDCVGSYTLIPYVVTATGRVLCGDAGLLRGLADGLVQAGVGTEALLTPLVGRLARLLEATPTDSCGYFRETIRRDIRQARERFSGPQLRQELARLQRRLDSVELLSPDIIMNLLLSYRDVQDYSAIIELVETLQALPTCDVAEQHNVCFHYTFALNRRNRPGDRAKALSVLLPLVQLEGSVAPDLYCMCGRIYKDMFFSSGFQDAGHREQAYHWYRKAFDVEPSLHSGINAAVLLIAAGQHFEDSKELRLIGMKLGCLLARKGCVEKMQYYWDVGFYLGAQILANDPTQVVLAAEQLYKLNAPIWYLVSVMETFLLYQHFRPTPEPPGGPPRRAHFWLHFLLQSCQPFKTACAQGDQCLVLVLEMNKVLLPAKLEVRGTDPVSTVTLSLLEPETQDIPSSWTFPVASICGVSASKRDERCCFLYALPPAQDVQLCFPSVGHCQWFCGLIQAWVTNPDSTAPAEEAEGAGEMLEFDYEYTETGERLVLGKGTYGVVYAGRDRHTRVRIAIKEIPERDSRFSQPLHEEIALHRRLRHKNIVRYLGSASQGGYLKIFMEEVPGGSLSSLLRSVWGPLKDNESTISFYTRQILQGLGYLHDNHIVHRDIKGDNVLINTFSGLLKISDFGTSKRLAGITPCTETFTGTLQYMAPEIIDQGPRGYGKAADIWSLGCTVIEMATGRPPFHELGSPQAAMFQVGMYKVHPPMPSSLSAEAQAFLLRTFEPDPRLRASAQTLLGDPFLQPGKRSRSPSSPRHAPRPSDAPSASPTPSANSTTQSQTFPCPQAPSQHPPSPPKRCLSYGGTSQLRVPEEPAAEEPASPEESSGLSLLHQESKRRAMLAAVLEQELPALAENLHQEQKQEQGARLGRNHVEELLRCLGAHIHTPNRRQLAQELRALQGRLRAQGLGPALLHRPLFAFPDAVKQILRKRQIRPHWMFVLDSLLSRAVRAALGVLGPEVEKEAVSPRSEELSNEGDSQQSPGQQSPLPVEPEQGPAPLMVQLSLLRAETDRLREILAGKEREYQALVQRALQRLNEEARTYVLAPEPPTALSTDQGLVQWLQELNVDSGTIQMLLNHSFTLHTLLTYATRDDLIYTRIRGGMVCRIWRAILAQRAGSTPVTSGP
# Sequence of CaMK2d (Q13557 whole entry): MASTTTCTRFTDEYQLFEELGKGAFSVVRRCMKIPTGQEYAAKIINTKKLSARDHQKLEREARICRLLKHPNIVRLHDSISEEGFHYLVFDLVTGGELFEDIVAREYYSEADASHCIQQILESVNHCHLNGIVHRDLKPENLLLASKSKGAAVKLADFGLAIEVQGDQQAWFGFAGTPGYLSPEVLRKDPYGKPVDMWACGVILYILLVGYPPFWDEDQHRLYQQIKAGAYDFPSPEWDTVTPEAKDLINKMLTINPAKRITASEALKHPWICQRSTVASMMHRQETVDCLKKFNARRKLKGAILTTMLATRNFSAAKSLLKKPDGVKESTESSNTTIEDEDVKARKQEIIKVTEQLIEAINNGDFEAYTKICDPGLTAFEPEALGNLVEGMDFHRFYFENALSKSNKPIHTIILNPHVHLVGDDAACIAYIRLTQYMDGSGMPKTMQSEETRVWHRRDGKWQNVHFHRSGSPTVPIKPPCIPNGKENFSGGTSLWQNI
# Sequence of Erk2 (P28482 whole entry): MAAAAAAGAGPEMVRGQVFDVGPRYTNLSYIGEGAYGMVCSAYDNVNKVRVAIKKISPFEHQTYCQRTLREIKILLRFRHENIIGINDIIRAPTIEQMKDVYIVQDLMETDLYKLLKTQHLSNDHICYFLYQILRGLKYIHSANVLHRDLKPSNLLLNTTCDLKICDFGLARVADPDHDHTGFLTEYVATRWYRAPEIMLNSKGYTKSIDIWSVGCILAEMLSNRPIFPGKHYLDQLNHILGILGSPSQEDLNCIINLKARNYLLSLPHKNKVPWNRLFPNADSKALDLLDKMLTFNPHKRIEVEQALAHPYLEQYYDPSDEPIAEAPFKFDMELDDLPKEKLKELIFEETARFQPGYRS
# Sequence of RSKL1 (Q96S38 whole entry): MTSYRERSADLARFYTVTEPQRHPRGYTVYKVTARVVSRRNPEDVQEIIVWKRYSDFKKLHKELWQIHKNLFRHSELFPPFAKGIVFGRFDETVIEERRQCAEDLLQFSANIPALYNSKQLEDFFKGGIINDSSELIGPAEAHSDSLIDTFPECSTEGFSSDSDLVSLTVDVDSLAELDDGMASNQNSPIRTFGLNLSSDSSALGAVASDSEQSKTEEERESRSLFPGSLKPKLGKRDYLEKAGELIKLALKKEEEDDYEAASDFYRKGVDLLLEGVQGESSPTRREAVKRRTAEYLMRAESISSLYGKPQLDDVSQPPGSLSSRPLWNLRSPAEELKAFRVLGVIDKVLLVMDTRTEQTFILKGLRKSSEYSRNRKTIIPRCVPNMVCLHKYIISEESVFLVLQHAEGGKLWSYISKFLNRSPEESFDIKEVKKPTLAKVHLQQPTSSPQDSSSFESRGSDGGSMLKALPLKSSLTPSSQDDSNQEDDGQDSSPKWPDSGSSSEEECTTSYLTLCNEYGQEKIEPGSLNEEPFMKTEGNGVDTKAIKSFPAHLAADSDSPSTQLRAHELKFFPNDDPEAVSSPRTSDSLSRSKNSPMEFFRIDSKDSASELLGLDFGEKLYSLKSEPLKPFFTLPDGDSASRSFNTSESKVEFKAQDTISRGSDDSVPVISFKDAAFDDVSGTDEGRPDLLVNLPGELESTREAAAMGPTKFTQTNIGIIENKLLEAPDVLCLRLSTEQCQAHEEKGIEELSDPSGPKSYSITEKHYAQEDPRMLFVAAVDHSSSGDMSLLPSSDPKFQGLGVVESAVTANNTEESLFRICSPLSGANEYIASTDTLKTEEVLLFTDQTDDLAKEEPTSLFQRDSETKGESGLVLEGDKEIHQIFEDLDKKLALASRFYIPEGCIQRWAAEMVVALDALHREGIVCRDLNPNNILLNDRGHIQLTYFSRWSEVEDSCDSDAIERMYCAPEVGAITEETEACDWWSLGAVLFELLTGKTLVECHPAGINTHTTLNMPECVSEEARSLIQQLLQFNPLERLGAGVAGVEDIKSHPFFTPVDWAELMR
# Sequence of CK1a (P48729 whole entry): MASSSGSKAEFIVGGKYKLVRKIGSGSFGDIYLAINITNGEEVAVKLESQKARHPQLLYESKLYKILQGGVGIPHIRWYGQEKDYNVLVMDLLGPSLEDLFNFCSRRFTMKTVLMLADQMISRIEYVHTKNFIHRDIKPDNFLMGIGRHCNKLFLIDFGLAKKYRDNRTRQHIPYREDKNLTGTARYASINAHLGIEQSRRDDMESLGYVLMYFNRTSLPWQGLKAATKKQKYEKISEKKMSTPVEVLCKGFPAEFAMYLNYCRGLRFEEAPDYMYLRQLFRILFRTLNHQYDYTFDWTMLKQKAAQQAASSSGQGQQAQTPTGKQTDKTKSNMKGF
# Sequence of CLK3 (P49761 whole entry): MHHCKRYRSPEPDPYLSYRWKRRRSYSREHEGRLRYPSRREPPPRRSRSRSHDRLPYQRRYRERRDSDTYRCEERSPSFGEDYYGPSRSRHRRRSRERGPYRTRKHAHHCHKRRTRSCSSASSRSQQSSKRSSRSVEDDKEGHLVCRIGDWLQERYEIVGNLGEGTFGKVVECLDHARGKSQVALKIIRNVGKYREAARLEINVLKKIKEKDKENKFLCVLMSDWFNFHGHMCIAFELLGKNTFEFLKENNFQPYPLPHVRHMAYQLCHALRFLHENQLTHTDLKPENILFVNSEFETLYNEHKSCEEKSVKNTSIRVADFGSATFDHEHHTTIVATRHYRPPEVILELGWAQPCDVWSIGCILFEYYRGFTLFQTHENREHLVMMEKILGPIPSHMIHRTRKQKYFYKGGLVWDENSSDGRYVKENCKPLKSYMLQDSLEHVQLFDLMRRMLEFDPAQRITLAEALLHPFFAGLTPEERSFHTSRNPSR
# Sequence of IRAK1 (P51617 whole entry): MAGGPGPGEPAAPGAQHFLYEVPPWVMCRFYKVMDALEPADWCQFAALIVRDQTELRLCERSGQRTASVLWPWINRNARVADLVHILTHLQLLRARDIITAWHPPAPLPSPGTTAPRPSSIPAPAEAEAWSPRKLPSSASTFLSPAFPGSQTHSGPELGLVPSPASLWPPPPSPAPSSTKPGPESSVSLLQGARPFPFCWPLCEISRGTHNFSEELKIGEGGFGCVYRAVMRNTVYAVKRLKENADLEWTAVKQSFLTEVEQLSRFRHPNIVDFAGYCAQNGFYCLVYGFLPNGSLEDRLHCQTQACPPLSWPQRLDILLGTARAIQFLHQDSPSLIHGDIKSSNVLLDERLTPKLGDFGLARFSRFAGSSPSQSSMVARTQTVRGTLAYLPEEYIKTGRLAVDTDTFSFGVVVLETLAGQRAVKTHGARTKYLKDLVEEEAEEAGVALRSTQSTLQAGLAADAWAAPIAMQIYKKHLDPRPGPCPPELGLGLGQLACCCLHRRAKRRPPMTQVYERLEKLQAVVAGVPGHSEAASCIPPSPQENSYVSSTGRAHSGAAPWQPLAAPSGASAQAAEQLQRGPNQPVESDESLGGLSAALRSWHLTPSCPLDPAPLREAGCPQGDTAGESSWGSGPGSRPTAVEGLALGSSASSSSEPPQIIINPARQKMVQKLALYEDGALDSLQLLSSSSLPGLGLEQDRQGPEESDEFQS
compound,measurement,setting,value
C=CC(=O)N1CCC(Cn2ccc(Nc3ncc(C(=O)Nc4c(C)cccc4Cl)s3)n2)C1 (stereo not shown) [II-1],% change of MS signal compared to control sample,[1],−5.8%
same,% change of MS signal compared to control sample,[2],11.0%
same,% change of MS signal compared to control sample,[3],−64.9%
same,% change of MS signal compared to control sample,[4],97.1% and >90%
same,% change of MS signal compared to control sample,[5],22.4% and 22.8%
same,% change of MS signal compared to control sample,[6],18.9%
same,% change of MS signal compared to control sample,[7],15.4%
same,% change of MS signal compared to control sample,[8],−23.4%
same,% change of MS signal compared to control sample,[9],17.4%
same,% change of MS signal compared to control sample,[10],−14.8%
same,% change of MS signal compared to control sample,[11],4.2%
same,% change of MS signal compared to control sample,[12],3.7%
same,% change of MS signal compared to control sample,[13],4.2%
same,% change of MS signal compared to control sample,[14],−17.8%
same,% change of MS signal compared to control sample,[15],5.2%
same,% change of MS signal compared to control sample,[16],7.5%
same,% change of MS signal compared to control sample,[17],−15.0%
same,% change of MS signal compared to control sample,[18],−22.6%
same,% change of MS signal compared to control sample,[19],−14.4%
same,% change of MS signal compared to control sample,[20],−11.8%
same,% change of MS signal compared to control sample,[21],−37.4%
same,% change of MS signal compared to control sample,[22],−14.2%
same,% change of MS signal compared to control sample,[23],16.4%
same,% change of MS signal compared to control sample,[24],51.7% and 50.8%
same,% change of MS signal compared to control sample,[25],7.3%
same,% change of MS signal compared to control sample,[26],−1.0%
same,% change of MS signal compared to control sample,[27],6.5%
same,% change of MS signal compared to control sample,[28],−20.9%
same,% change of MS signal compared to control sample,[29],−27.2%
same,% change of MS signal compared to control sample,[30],−5.8%
same,% change of MS signal compared to control sample,[31],−0.8%
same,% change of MS signal compared to control sample,[32],−6.6%
same,% change of MS signal compared to control sample,[33],26.3%
same,% change of MS signal compared to control sample,[34],−55.3%
same,% change of MS signal compared to control sample,[35],13.7%
same,% change of MS signal compared to control sample,[36],3.8%
same,% change of MS signal compared to control sample,[37],−10.1%
same,% change of MS signal compared to control sample,[38],13.7%
same,% change of MS signal compared to control sample,[39],−45.9%
same,% change of MS signal compared to control sample,[40],−65.4%
C=CC(=O)N1CCC(CNc2nccc(Nc3ncc(C(=O)Nc4c(C)cccc4C)s3)n2)C1 (racemic) [Example I-8],% change of MS signal compared to control sample,[1],12.5%
same,% change of MS signal compared to control sample,[2],29.8%
same,% change of MS signal compared to control sample,[3],−10.1%
same,% change of MS signal compared to control sample,[4],98.0% and >90%
same,% change of MS signal compared to control sample,[6],−8.1%
same,% change of MS signal compared to control sample,[7],12.1%
same,% change of MS signal compared to control sample,[8],1.0%
same,% change of MS signal compared to control sample,[9],5.8%
same,% change of MS signal compared to control sample,[10],−22.3%
same,% change of MS signal compared to control sample,[11],13.6%
same,% change of MS signal compared to control sample,[12],6.1%
same,% change of MS signal compared to control sample,[13],−10.0%
same,% change of MS signal compared to control sample,[14],−19.5%
same,% change of MS signal compared to control sample,[15],3.6%
same,% change of MS signal compared to control sample,[16],2.2%
same,% change of MS signal compared to control sample,[17],−13.3%
same,% change of MS signal compared to control sample,[18],−14.9%
same,% change of MS signal compared to control sample,[19],14.9%
same,% change of MS signal compared to control sample,[20],−14.2%
same,% change of MS signal compared to control sample,[41],19.4% and 36.6%
same,% change of MS signal compared to control sample,[21],−29.7%
same,% change of MS signal compared to control sample,[22],−11.4%
same,% change of MS signal compared to control sample,[23],27.9%
same,% change of MS signal compared to control sample,[24],69.9% and 82.4%
same,% change of MS signal compared to control sample,[25],9.4%
same,% change of MS signal compared to control sample,[26],−5.9%
same,% change of MS signal compared to control sample,[27],13.1%
same,% change of MS signal compared to control sample,[28],−12.2%
same,% change of MS signal compared to control sample,[29],5.5%
same,% change of MS signal compared to control sample,[30],−0.1%
same,% change of MS signal compared to control sample,[31],−12.9%
same,% change of MS signal compared to control sample,[32],3.3%
same,% change of MS signal compared to control sample,[33],13.6%
same,% change of MS signal compared to control sample,[34],−24.9%
same,% change of MS signal compared to control sample,[35],35.0%
same,% change of MS signal compared to control sample,[36],−8.3%
same,% change of MS signal compared to control sample,[37],7.5%
same,% change of MS signal compared to control sample,[38],7.9%
same,% change of MS signal compared to control sample,[39],−55.4%
same,% change of MS signal compared to control sample,[40],−36.8%
C=CC(=O)N1CC[C@@H](Nc2nccc(Nc3ncc(C(=O)Nc4c(C)cccc4C)s3)n2)C1 [Example I-4],% change of MS signal compared to control sample,[1],−5.8%
same,% change of MS signal compared to control sample,[2],−23.0%
same,% change of MS signal compared to control sample,[3],−61.3%
same,% change of MS signal compared to control sample,[4],97.0% and >90%
same,% change of MS signal compared to control sample,[5],22.5% and 21.9%
same,% change of MS signal compared to control sample,[6],10.9%
same,% change of MS signal compared to control sample,[7],3.6%
same,% change of MS signal compared to control sample,[8],−31.6%
same,% change of MS signal compared to control sample,[9],19.1%
same,% change of MS signal compared to control sample,[10],−8.5%
same,% change of MS signal compared to control sample,[11],3.3%
same,% change of MS signal compared to control sample,[12],6.7%
same,% change of MS signal compared to control sample,[13],−11.7%
same,% change of MS signal compared to control sample,[14],−11.0%
same,% change of MS signal compared to control sample,[15],−30.6%
same,% change of MS signal compared to control sample,[16],2.8%
same,% change of MS signal compared to control sample,[17],−15.6%
same,% change of MS signal compared to control sample,[18],−1.3%
same,% change of MS signal compared to control sample,[19],−41.3%
same,% change of MS signal compared to control sample,[20],−10.5%
same,% change of MS signal compared to control sample,[41],−19.1%
same,% change of MS signal compared to control sample,[21],−28.9%
same,% change of MS signal compared to control sample,[22],−9.0%
same,% change of MS signal compared to control sample,[23],26.7%
same,% change of MS signal compared to control sample,[24],27.0% and 22.8%
same,% change of MS signal compared to control sample,[25],8.7%
same,% change of MS signal compared to control sample,[26],2.2%
same,% change of MS signal compared to control sample,[27],14.6%
same,% change of MS signal compared to control sample,[28],−5.7%
same,% change of MS signal compared to control sample,[29],−38.7%
same,% change of MS signal compared to control sample,[30],−3.2%
same,% change of MS signal compared to control sample,[31],7.4%
same,% change of MS signal compared to control sample,[32],−2.7%
same,% change of MS signal compared to control sample,[33],20.3%
same,% change of MS signal compared to control sample,[34],−66.1%
same,% change of MS signal compared to control sample,[35],10.7%
same,% change of MS signal compared to control sample,[36],2.0%
same,% change of MS signal compared to control sample,[37],−31.5%
same,% change of MS signal compared to control sample,[38],−0.7%
same,% change of MS signal compared to control sample,[39],−46.3%
same,% change of MS signal compared to control sample,[40],−102.3%
